In patent publication US20190299005A1, “VAGUS NERVE STIMULATION AND MONITORING” (priority 2018, published 2019):
Entries after “also recorded” stand apart in the source; their conditions may differ. Structures can show the parent of a compound that is named as a salt.

Tests used:
[1] = tested on: individual single vagal fibers (mesenteric nerve bundle of jejunal segment); experiment: Ex vivo vagal nerve fiber recording, test substance in lumen of jejunal segment, post hoc single unit burst analysis; parameters: species or system BALB/c mice; conditions: for Average inter-pulse duration, lower 95% CI / Average inter-pulse duration, upper 95% CI / Burst duration, lower 95% CI / Burst duration, upper 95% CI / Inter-burst duration, lower 95% CI / Inter-burst duration, upper 95% CI / Inter-pulse duration within bursts, lower 95% CI / Inter-pulse duration within bursts, upper 95% CI: drug in lumen; for Fraction average inter-pulse duration / Fraction burst duration / Fraction inter-burst duration / Fraction inter-pulse duration within bursts: fractional change (treatment−control)/control; for Fraction average inter-pulse duration: luminal fluoxetine 30 μM, sertraline 10 μM, bupropion 10 μM, JB-1 10^9 cfu/mL, squalamine 10 μM; for Fraction burst duration / Fraction inter-burst duration / Fraction inter-pulse duration within bursts: same luminal concentrations
Description: Adult BALB/c mice were killed by cervical dislocation. Then a 2-3 cm long jejunal segment with attached mesenteric tissue was removed and the oral and anal ends of the jejunal segment were cannulated with plastic tubing, gently emptied of contents by perfusing the lumen with Krebs buffer using a 3 mL plastic syringe whose tip was inserted into the oral opening. The cleaned jejunal segment was placed into a polystyrene petri dish (Falcon 351006, 50 mm×9 mm, Corning, N.Y., USA) filled with Krebs buffer of the following composition (in mM): 118 NaCl, 4.8 KCl, 25 NaHCO3, 1.0 NaH2PO4, 1.2 MgSO4, 11.1 glucose, and 2.5 CaCl2) bubbled with carbogen (95% 02 and 5% 002). The bottom of the dish was previously lined 1-2 mm deep with cured silicone elastomer SYLGARD®, Dow Corning, MI, USA.
Next the mesenteric nerve bundle was isolated by careful dissection under a stereomicroscope (Leika) using pointed number 5 forceps (Fine Science Tools), and the dish and contents were transferred to an inverted microscope (Nikon).
The gut segment and attached mesenteric tissue was then pinned linearly, without stretching, from oral to anal in the dish by pushing fine insect pins through the adherent mesentery into the silicone elastomer SYLGARD®. The lumen was gravity perfused (1 ml/min) at room temperature (20-25° C.), with oxygenated Krebs buffer and using several Mariotti bottles (McCarthy, Science 80: 100, 1934) attached to a plastic manifold (World Precision Instruments, Sarasota, Fla., USA). The serosal compartment was separately perfused with pre-warmed (35° C.) Krebs buffer at 4 ml/min. 3 μM nicardipine hydrochloride was added to the latter Krebs buffer to paralyze the smooth muscle to isolate chemosensory afferent signals from motility-related vagal responses (Perez-Burgos et al., Am J Physiol Gastrointest Liver Physiol 304: G211-220, 2013).
The nerve bundle was gently sucked onto a glass pipette attached to a patch-clamp electrode holder (CV-7B; Molecular Devices, Sunnyvale, Calif.), and extracellular nerve recordings were performed using a Multi-Clamp 700B amplifier and Digidata 1440A signal converter (Molecular Devices). Electrical signals were bandpass-filtered at 0.1-2 kHz, sampled at 20 kHz, and stored on a personal computer running pClamp 10 software (Molecular Devices) for post hoc analysis. Constitutive multiunit electrical activity was always recorded from the mesenteric nerve bundle even when the lumen was perfused with only Krebs buffer. Baseline recordings with Krebs buffer in the lumen were performed for 15 min, after which the luminal perfusate was switched to one containing Krebs buffer with substances to be tested (fluoxetine 30 μM, sertraline 10 μM, bupropion (WELLBUTRIN®) 10 μM, Lactobacillus rhamnosus JB-1 10^9 cfu/mL, or squalamine 10 μM). Recording in the presence of test substances was performed for up to 40 min after which the luminal perfusate was again switched to Krebs buffer and recording continued for up to 30 min.
Single units representing discharge from individual single vagal fibers were discriminated and identified by their unique spike waveform shape and amplitude (Rong et al., J Physiol 560: 867-881, 2004) using Dataview computer software (Heitler, Journal of Undergraduate Neuroscience Education 6: A1-A7, 2007). Dataview uses principal component analysis to sort the recorded multiunit spikes into individual single unit categories according to shape and amplitude (Heitler, Journal of Neuroscience Methods 185: 151-164, 2009).
Control and treatment periods were identified from event markers inserted at the time of recording. Then, for each channel (color-coded unit), spike bursts were detected using the “Poisson surprise” method devised by Legéndy & Salcman (Legendy & Salcman, J Neurophysiol 53: 926-939, 1985). A surprise was defined as −log 10(p), where p is the probability of a set of events occurring this close together by chance. […]

[2] = tested on: BALB/c mice (depressive-like behavior); experiment: Tail Suspension Test (TST) after oral treatment, intact and vagotomized mice; assay type: in vivo; conditions: for depressive and anxiety behavior in mice: oral administration, intact vagus nerve; for effect on depressive and anxiety behavior in vagotomized mice: sub-diaphragmatic vagotomy prior to oral administration; for dependency of the effect on the vagus nerve: vagotomized mice compared to mice with an intact vagus nerve
Description: BALB/c mice were orally fed antidepressants fluoxetine (18 mg/kg per day), sertraline (6 mg/kg per day) and bupropion (WELLBUTRIN®) (6 mg/kg per day) in the drinking water for 14 days, or JB-1 (2.5-4×10^9 bacteria/day) in the drinking water for 28 days.
1 day following oral treatments with the antidepressants, the BALB/c mice were tested for depressive-like behavior with the tail suspension test. Mice were removed from the colony room and moved to a behavioral testing room where they were allowed to habituate for 30 min. Following this period, mice were suspended by the tail using laboratory tape measured to 17 cm (Can et al., Journal of Visualized Experiments 59: e3769, 2012) from a suspension bar in a position whereby they could not escape or hold on to any surfaces. 2 cm of tape was affixed to the mouse tail with the remaining 15 cm used for suspension of the mouse. Animals were left suspended for a period of 6 mins. Animal behavior was video recorded and scored by a blinded observer for freezing behavior. Freezing was calculated as a percentage of total time. Following behavioral testing mice were returned to the housing room and resumed oral treatments for the duration of the study.
The Tail Suspension Test is a simple screening test for the behavioral effects of antianxiety agents and antidepressants in rodents. This test assesses the inter-individual differences in responses to stressful situations measured by duration of immobility.

[3] = tested on: individual single vagal fibers (mesenteric nerve bundle of jejunal segment); experiment: Ex vivo vagal nerve fiber recording from mice orally fed antidepressants, lumen perfused with buffer only; parameters: species or system BALB/c mice; conditions: fed in the drinking water for 14 days; fluoxetine 18, sertraline 6, bupropion 6 mg/kg per day
Description: The procedure described above in connection with Example 1 and 2 was repeated for the BALB/c mice orally fed with antidepressants fluoxetine (18 mg/kg per day), sertraline (6 mg/kg per day) and bupropion (WELLBUTRIN®) (6 mg/kg per day) in the drinking water for 14 days. Following the oral treatment, the mice were sacrificed and a jejunal segment with mesenteric tissue was recovered as described in Example 1. In this example, the lumens of the jejunal segments were, however, perfused only with KREPS buffer.
FIG. 16 illustrates the mean interval between spike firing, i.e., average inter-pulse durations, for luminal Krebs control, i.e., from control mice that have not been treated with any antidepressants, and for mice fed with fluoxetine, sertraline or bupropion (WELLBUTRIN®).

[4] = tested on: patients with Parkinson's disease (PD) and severe constipation; conditions: cited from earlier work
[5] = tested on: colonic motility; conditions: applied intraluminally in mice; cited from earlier work
[6] = tested on: vagal afferent; conditions: aged mice with reduced firing frequency; cited from earlier work

In the case of `CNCCC(Oc1ccc(C(F)(F)F)cc1)c1ccccc1` (stereo not drawn) [Fluoxetine, fluoxetine], the “Average inter-pulse duration, lower 95% CI” value [1] was 612 ms, the “Average inter-pulse duration, upper 95% CI” value [1] was 983 ms and the “Burst duration, lower 95% CI” value [1] was 510 ms. The “Burst duration, upper 95% CI” value [1] was 771 ms, the “Inter-burst duration, lower 95% CI” value [1] was 11524 ms and the “Inter-burst duration, upper 95% CI” value [1] was 44175 ms. The “Inter-pulse duration within bursts, lower 95% CI” value [1] was 101 ms, the “Inter-pulse duration within bursts, upper 95% CI” value [1] was 138 ms and the “Inter-burst duration, lower 95% CI” value ([1]; listed as fluoxetine) was 11 524 ms. The “Inter-burst duration, upper 95% CI” value ([1]; listed as fluoxetine) was 44 175 ms, the “Fraction average inter-pulse duration” value [1] was −0.3964 and the Fraction burst duration [1] was 0.6424. For the same molecule, the Fraction inter-burst duration [1] was −0.1795, the “Fraction inter-pulse duration within bursts” value [1] was 0.2705 and the “depressive and anxiety behavior in mice” value [2] was “decreased”. For the same molecule, the “effect on depressive and anxiety behavior in vagotomized mice” value (“effect … in vagotomized mice” for short) [2] was “disappeared; also recorded: no effect” and the “dependency of the effect on the vagus nerve” value (shortened to “dependency of the effect”) [2] was “dependent on the vagus nerve”.
For `CN[C@H]1CC[C@@H](c2ccc(Cl)c(Cl)c2)c2ccccc21` [Sertraline, sertraline], the “Average inter-pulse duration, lower 95% CI” value [1] was 386 ms, the “Average inter-pulse duration, upper 95% CI” value [1] was 614 ms and the “Burst duration, lower 95% CI” value [1] was 516 ms. For the same molecule, the “Burst duration, upper 95% CI” value [1] was 676 ms, the “Inter-burst duration, lower 95% CI” value [1] was 16160 ms and the “Inter-burst duration, upper 95% CI” value [1] was 36270 ms. For the same molecule, the “Inter-pulse duration within bursts, lower 95% CI” value [1] was 87 ms, the “Inter-pulse duration within bursts, upper 95% CI” value [1] was 110 ms and the “Inter-burst duration, lower 95% CI” value ([1]; listed as sertraline) was 16 160 ms. For the same molecule, the “Inter-burst duration, upper 95% CI” value ([1]; listed as sertraline) was 36 270 ms, the “Fraction average inter-pulse duration” value [1] was −0.1627 and the Fraction burst duration [1] was 0.6184. For the same molecule, the Fraction inter-burst duration [1] was −0.1554, the “Fraction inter-pulse duration within bursts” value [1] was 0.1936 and the “depressive and anxiety behavior in mice” value [2] was “decreased”. The “effect … in vagotomized mice” value [2] was “disappeared” and the “dependency of the effect” value [2] was “dependent on the vagus nerve; also recorded: same dependency of action”.
With `CC(NC(C)(C)C)C(=O)c1cccc(Cl)c1` (stereo not drawn) [Bupropion, bupropion] the “Average inter-pulse duration, lower 95% CI” value [1] was 896 ms, the “Average inter-pulse duration, upper 95% CI” value [1] was 1081 ms and the “Burst duration, lower 95% CI” value [1] was 412 ms. The “Burst duration, upper 95% CI” value [1] was 543 ms, the “Inter-burst duration, lower 95% CI” value [1] was 49779 ms and the “Inter-burst duration, upper 95% CI” value [1] was 66105 ms. The “Inter-pulse duration within bursts, lower 95% CI” value [1] was 105 ms, the “Inter-pulse duration within bursts, upper 95% CI” value [1] was 124 ms and the “Fraction average inter-pulse duration” value [1] was 0.2919. For the same molecule, the Fraction burst duration [1] was 0.1778, the Fraction inter-burst duration [1] was 1.152 and the “Fraction inter-pulse duration within bursts” value [1] was 0.01576. The “effect … in vagotomized mice” value [2] was “present”, the “dependency of the effect” value [2] was “not to be dependent on the vagus nerve” and the “average inter-pulse durations as compared to control mice” value [3] was “no difference”.
In the case of `CC(C)[C@@H](CC[C@@H](C)[C@H]1CC[C@H]2[C@@H]3[C@H](O)C[C@H]4C[C@@H](NCCCNCCCCN)CC[C@]4(C)[C@H]3CC[C@]12C)OS(=O)(=O)O` [Squalamine, 3(3β,5α,7α,24R)-3-({3-[(4-aminobutyl)amino]propyl}amino)-7-hydroxycholestan-24-yl hydrogen sulfate], the “Average inter-pulse duration, lower 95% CI” value [1] was 334 ms, the “Average inter-pulse duration, upper 95% CI” value [1] was 675 ms and the “Burst duration, lower 95% CI” value [1] was 111 ms. For the same molecule, the “Burst duration, upper 95% CI” value [1] was 1954 ms, the “Inter-burst duration, lower 95% CI” value [1] was 11233 ms and the “Inter-burst duration, upper 95% CI” value [1] was 34229 ms. The “Inter-pulse duration within bursts, lower 95% CI” value [1] was 98 ms, the Inter-pulse duration within bursts, upper 95% CI [1] was 136 ms and the “Burst duration, lower 95% CI” value ([1]; listed as squalamine) was 110 ms. For the same molecule, the “Burst duration, upper 95% CI” value ([1]; listed as squalamine) was 1 954 ms, the “Inter-burst duration, lower 95% CI” value ([1]; listed as squalamine) was 11 233 ms and the “Inter-burst duration, upper 95% CI” value ([1]; listed as squalamine) was 34 229 ms. For the same molecule, the “Inter-pulse duration within bursts, upper 95% CI” value ([1]; listed as squalamine) was 136 ms, the “Fraction average inter-pulse duration” value [1] was −0.183 and the Fraction burst duration [1] was 0.6752. For the same molecule, the Fraction inter-burst duration [1] was −0.2957, the “Fraction inter-pulse duration within bursts” value [1] was 0.1394 and the “vagus code compared with other antidepressants” value ([1]; squalamine 10 μM in lumen) was “almost identical vagus code as sertraline”. For the same molecule, the relief of constipation ([4]; increasing dosage schedule, 50 patients) was “positive beneficial effects”, the “neurological symptoms in PD patients like hallucinations, sleep and circadian rhythm disturbances” value ([4]; while patients were taking the drug) was “attenuated or prevented” and the “age and loperamide-related dysmotility” value [5] was “reversed”. For the same molecule, the “effects on colonic motility” value [5] was “prokinetic effects” and the “vagal afferent firing frequency” value [6] was “increases”.
